Laboratory results: the NIST ThermoML archive (doi:10.1016/j.tca.2013.05.007)
± gives the expanded uncertainty stated by the source.

Test: molar heat capacity at constant pressure
Conditions: 320.15 K; 101.33 kPa; Liquid; Large sample (1 g) DSC

In order of falling “molar heat capacity at constant pressure” value:
1. CCCC[n+]1cccc(C)c1.O=S(=O)([N-]S(=O)(=O)C(F)(F)F)C(F)(F)F  570 ± 58 J/K/mol
2. CCC[n+]1cccc(C)c1.O=S(=O)([N-]S(=O)(=O)C(F)(F)F)C(F)(F)F  537 ± 54 J/K/mol
3. CC[n+]1cccc(C)c1.O=S(=O)([N-]S(=O)(=O)C(F)(F)F)C(F)(F)F  511 ± 52 J/K/mol
4. CCCCn1cc[n+](C)c1.N#CN=C=[N-] [1-butyl-3-methylimidazolium dicyanamide]  386 ± 39 J/K/mol

Same assay, conditions: 321.15 K; 101.33 kPa; Liquid; Large sample (1 g) DSC

In order of rising “molar heat capacity at constant pressure” value:
1. CCCCn1cc[n+](C)c1.N#CN=C=[N-] [1-butyl-3-methylimidazolium dicyanamide]  386 ± 39 J/K/mol
2. CC[n+]1cccc(C)c1.O=S(=O)([N-]S(=O)(=O)C(F)(F)F)C(F)(F)F  512 ± 52 J/K/mol
3. CCC[n+]1cccc(C)c1.O=S(=O)([N-]S(=O)(=O)C(F)(F)F)C(F)(F)F  538 ± 54 J/K/mol
4. CCCC[n+]1cccc(C)c1.O=S(=O)([N-]S(=O)(=O)C(F)(F)F)C(F)(F)F  570 ± 58 J/K/mol

Same assay, conditions: 322.15 K; 101.33 kPa; Liquid; Large sample (1 g) DSC

In order of rising “molar heat capacity at constant pressure” value:
1. CCCCn1cc[n+](C)c1.N#CN=C=[N-] [1-butyl-3-methylimidazolium dicyanamide]  387 ± 39 J/K/mol
2. CC[n+]1cccc(C)c1.O=S(=O)([N-]S(=O)(=O)C(F)(F)F)C(F)(F)F  513 ± 52 J/K/mol
3. CCC[n+]1cccc(C)c1.O=S(=O)([N-]S(=O)(=O)C(F)(F)F)C(F)(F)F  539 ± 54 J/K/mol
4. CCCC[n+]1cccc(C)c1.O=S(=O)([N-]S(=O)(=O)C(F)(F)F)C(F)(F)F  571 ± 58 J/K/mol

Same assay, conditions: 323.15 K; 101.33 kPa; Liquid; Large sample (1 g) DSC

In order of rising “molar heat capacity at constant pressure” value:
1. CCCCn1cc[n+](C)c1.N#CN=C=[N-] [1-butyl-3-methylimidazolium dicyanamide]  387 ± 39 J/K/mol
2. CCCCn1cc[n+](C)c1.O=S(=O)([O-])C(F)(F)F [1-butyl-3-methylimidazolium trifluoromethanesulfonate]  456 ± 46 J/K/mol
3. CCCC[n+]1cccc(C)c1.O=S(=O)([O-])C(F)(F)F [1-butyl-3-methylpyridinium trifluoromethanesulfonate]  461 ± 47 J/K/mol
4. CC[n+]1cccc(C)c1.O=S(=O)([N-]S(=O)(=O)C(F)(F)F)C(F)(F)F  514 ± 52 J/K/mol
5. CCC[n+]1cccc(C)c1.O=S(=O)([N-]S(=O)(=O)C(F)(F)F)C(F)(F)F  540 ± 55 J/K/mol
6. CCCC[n+]1cccc(C)c1.O=S(=O)([N-]S(=O)(=O)C(F)(F)F)C(F)(F)F  572 ± 58 J/K/mol

Same assay, conditions: 324.15 K; 101.33 kPa; Liquid; Large sample (1 g) DSC

In order of falling “molar heat capacity at constant pressure” value:
1. CCCC[n+]1cccc(C)c1.O=S(=O)([N-]S(=O)(=O)C(F)(F)F)C(F)(F)F  573 ± 58 J/K/mol
2. CCC[n+]1cccc(C)c1.O=S(=O)([N-]S(=O)(=O)C(F)(F)F)C(F)(F)F  541 ± 55 J/K/mol
3. CC[n+]1cccc(C)c1.O=S(=O)([N-]S(=O)(=O)C(F)(F)F)C(F)(F)F  514 ± 52 J/K/mol
4. CCCC[n+]1cccc(C)c1.O=S(=O)([O-])C(F)(F)F [1-butyl-3-methylpyridinium trifluoromethanesulfonate]  462 ± 47 J/K/mol
5. CCCCn1cc[n+](C)c1.O=S(=O)([O-])C(F)(F)F [1-butyl-3-methylimidazolium trifluoromethanesulfonate]  457 ± 46 J/K/mol
6. CCCCn1cc[n+](C)c1.N#CN=C=[N-] [1-butyl-3-methylimidazolium dicyanamide]  388 ± 39 J/K/mol

Same assay, conditions: 325.15 K; 101.33 kPa; Liquid; Large sample (1 g) DSC

In order of rising “molar heat capacity at constant pressure” value:
1. CCCCn1cc[n+](C)c1.N#CN=C=[N-] [1-butyl-3-methylimidazolium dicyanamide]  388 ± 39 J/K/mol
2. CCCCn1cc[n+](C)c1.O=S(=O)([O-])C(F)(F)F [1-butyl-3-methylimidazolium trifluoromethanesulfonate]  458 ± 46 J/K/mol
3. CCCC[n+]1cccc(C)c1.O=S(=O)([O-])C(F)(F)F [1-butyl-3-methylpyridinium trifluoromethanesulfonate]  464 ± 47 J/K/mol
4. CC[n+]1cccc(C)c1.O=S(=O)([N-]S(=O)(=O)C(F)(F)F)C(F)(F)F  515 ± 52 J/K/mol
5. CCC[n+]1cccc(C)c1.O=S(=O)([N-]S(=O)(=O)C(F)(F)F)C(F)(F)F  541 ± 55 J/K/mol
6. CCCC[n+]1cccc(C)c1.O=S(=O)([N-]S(=O)(=O)C(F)(F)F)C(F)(F)F  574 ± 58 J/K/mol

Same assay, conditions: 326.15 K; 101.33 kPa; Liquid; Large sample (1 g) DSC

In order of falling “molar heat capacity at constant pressure” value:
1. CCCC[n+]1cccc(C)c1.O=S(=O)([N-]S(=O)(=O)C(F)(F)F)C(F)(F)F  575 ± 58 J/K/mol
2. CCC[n+]1cccc(C)c1.O=S(=O)([N-]S(=O)(=O)C(F)(F)F)C(F)(F)F  542 ± 55 J/K/mol
3. CC[n+]1cccc(C)c1.O=S(=O)([N-]S(=O)(=O)C(F)(F)F)C(F)(F)F  516 ± 52 J/K/mol
4. CCCC[n+]1cccc(C)c1.O=S(=O)([O-])C(F)(F)F [1-butyl-3-methylpyridinium trifluoromethanesulfonate]  465 ± 47 J/K/mol
5. CCCCn1cc[n+](C)c1.O=S(=O)([O-])C(F)(F)F [1-butyl-3-methylimidazolium trifluoromethanesulfonate]  459 ± 46 J/K/mol
6. CCCCn1cc[n+](C)c1.N#CN=C=[N-] [1-butyl-3-methylimidazolium dicyanamide]  388 ± 39 J/K/mol

Same assay, conditions: 327.15 K; 101.33 kPa; Liquid; Large sample (1 g) DSC

In order of falling “molar heat capacity at constant pressure” value:
1. CCCC[n+]1cccc(C)c1.O=S(=O)([N-]S(=O)(=O)C(F)(F)F)C(F)(F)F  576 ± 58 J/K/mol
2. CCC[n+]1cccc(C)c1.O=S(=O)([N-]S(=O)(=O)C(F)(F)F)C(F)(F)F  543 ± 55 J/K/mol
3. CC[n+]1cccc(C)c1.O=S(=O)([N-]S(=O)(=O)C(F)(F)F)C(F)(F)F  517 ± 52 J/K/mol
4. CCCC[n+]1cccc(C)c1.O=S(=O)([O-])C(F)(F)F [1-butyl-3-methylpyridinium trifluoromethanesulfonate]  467 ± 47 J/K/mol
5. CCCCn1cc[n+](C)c1.O=S(=O)([O-])C(F)(F)F [1-butyl-3-methylimidazolium trifluoromethanesulfonate]  460 ± 47 J/K/mol
6. CCCCn1cc[n+](C)c1.N#CN=C=[N-] [1-butyl-3-methylimidazolium dicyanamide]  389 ± 39 J/K/mol

Same assay, conditions: 328.15 K; 101.33 kPa; Liquid; Large sample (1 g) DSC

In order of falling “molar heat capacity at constant pressure” value:
1. CCCC[n+]1cccc(C)c1.O=S(=O)([N-]S(=O)(=O)C(F)(F)F)C(F)(F)F  577 ± 58 J/K/mol
2. CCC[n+]1cccc(C)c1.O=S(=O)([N-]S(=O)(=O)C(F)(F)F)C(F)(F)F  544 ± 55 J/K/mol
3. CC[n+]1cccc(C)c1.O=S(=O)([N-]S(=O)(=O)C(F)(F)F)C(F)(F)F  518 ± 52 J/K/mol
4. CCCC[n+]1cccc(C)c1.O=S(=O)([O-])C(F)(F)F [1-butyl-3-methylpyridinium trifluoromethanesulfonate]  468 ± 47 J/K/mol
5. CCCCn1cc[n+](C)c1.O=S(=O)([O-])C(F)(F)F [1-butyl-3-methylimidazolium trifluoromethanesulfonate]  461 ± 47 J/K/mol
6. CCCCn1cc[n+](C)c1.N#CN=C=[N-] [1-butyl-3-methylimidazolium dicyanamide]  389 ± 39 J/K/mol

Same assay, conditions: 329.15 K; 101.33 kPa; Liquid; Large sample (1 g) DSC

In order of falling “molar heat capacity at constant pressure” value:
1. CCCC[n+]1cccc(C)c1.O=S(=O)([N-]S(=O)(=O)C(F)(F)F)C(F)(F)F  578 ± 58 J/K/mol
2. CCC[n+]1cccc(C)c1.O=S(=O)([N-]S(=O)(=O)C(F)(F)F)C(F)(F)F  545 ± 55 J/K/mol
3. CC[n+]1cccc(C)c1.O=S(=O)([N-]S(=O)(=O)C(F)(F)F)C(F)(F)F  519 ± 52 J/K/mol
4. CCCC[n+]1cccc(C)c1.O=S(=O)([O-])C(F)(F)F [1-butyl-3-methylpyridinium trifluoromethanesulfonate]  469 ± 47 J/K/mol
5. CCCCn1cc[n+](C)c1.O=S(=O)([O-])C(F)(F)F [1-butyl-3-methylimidazolium trifluoromethanesulfonate]  462 ± 47 J/K/mol
6. CCCCn1cc[n+](C)c1.N#CN=C=[N-] [1-butyl-3-methylimidazolium dicyanamide]  390 ± 39 J/K/mol

Same assay, conditions: 330.15 K; 101.33 kPa; Liquid; Large sample (1 g) DSC

In order of falling “molar heat capacity at constant pressure” value:
1. CCCC[n+]1cccc(C)c1.O=S(=O)([N-]S(=O)(=O)C(F)(F)F)C(F)(F)F  579 ± 59 J/K/mol
2. CC[n+]1cccc(C)c1.O=S(=O)([N-]S(=O)(=O)C(F)(F)F)C(F)(F)F  519 ± 52 J/K/mol
3. CCCC[n+]1cccc(C)c1.O=S(=O)([O-])C(F)(F)F [1-butyl-3-methylpyridinium trifluoromethanesulfonate]  471 ± 48 J/K/mol
4. CCCCn1cc[n+](C)c1.O=S(=O)([O-])C(F)(F)F [1-butyl-3-methylimidazolium trifluoromethanesulfonate]  463 ± 47 J/K/mol
5. CCCCn1cc[n+](C)c1.N#CN=C=[N-] [1-butyl-3-methylimidazolium dicyanamide]  390 ± 39 J/K/mol
